Measured values published in patent US10039761B2, “Co-crystals and pharmaceutical compositions comprising the same” (Vertex Pharmaceuticals Incorporated, priority 2013, dated 2018).

Assays:
[1] = test system: OD26749 primary NSCLC xenograft; test: OD26749 primary NSCLC xenograft efficacy with whole body IR; format: in vivo, nude mice; conditions: for % T/C (Day 29): 2 Gy IR ([…]) q7dx2
[2] = test system: H460; test: Combination with genotoxic agents, cell viability (Mixtures Blend); format: cell-based; set-up: key to Synergy or Antagonism, Plus Radiation (2 Gy): Plus = enhanced effect of radiation; *: Viability reduction driven predominantly by Compound (1) plus radiation; conditions: no agent ticked
Protocol: (§1) The cell-based experiments and assays were performed with either molecule but not always with both. Compounds (1) and (2) were generally very similar in those assays and experiments. Analysis of the combination experiments was performed using two methods: the Bliss Additivity model and the Mixtures Blend method to determine the degree of synergy, additivity, or antagonism. In the Bliss method, a matrix of Bliss scores was generated for each cell line and treatment, and a sum of the Bliss values over the range of combination concentrations tested was calculated. […] Larger average Bliss values indicate greater confidence in reporting synergy, and smaller scores indicate greater confidence in reporting antagonism. In the Mixtures Blend method combinants were added in a range of optimal ratios using design of experiment (DOE) software (DX-8 from STAT-EASE); the cells were irradiated with 2 Gy as required. Synergy was determined using statistical analysis of the data (ANOVA) to indicate linear (additivity) or statistically significant (p<0.1) non-linear (antagonism or synergy) mixes of the combinants. The following SOC agents were tested in double combinations with Compound (1): etoposide (a topoisomerase inhibitor that induces DSBs), cisplatin (DNA cross-linker), carboplatin (DNA cross-linker), fluorouracil (5-FU, antimetabolite that inhibits thymidylate synthase), paclitaxel (mitotic inhibitor that binds to tubulin), cetuximab (EGFR monoclonal antibody), and radiation. […] These findings were confirmed using the Bliss Additivity model (Table 21). […] While there is not total agreement in the various lines tested, (as detailed in the other sections) the majority agree and the conclusions arrived at are common to each. […] The cancer cell lines in Table 19 indicate: ESO26-gastroesophageal junction cancer, OE19-gastroesophageal junction cancer, […]549-lung cancer, colo205-colon cancer, H460-lung cancer, H2009-lung cancer, FaDu-pharynx cancer, Miapaca2-pancreatic cancer, HFL1-human fetal lung fibroblast.

[3] = test system: FaDu; test: as above; format: cell-based; set-up: key to Synergy or Antagonism, Plus Radiation (2 Gy): Plus = enhanced effect of radiation; *: Viability reduction driven predominantly by Compound (1) plus radiation
Protocol: as §1

[4] = test system: H2009; test: as above; format: cell-based; set-up: key to Synergy or Antagonism, Plus Radiation (2 Gy): Plus = enhanced effect of radiation; *: Viability reduction driven predominantly by Compound (1) plus radiation; conditions: no agent ticked
Protocol: as §1

[5] = test system: HFL1; test: as above; format: cell-based, human
Protocol: as §1

[6] = Blood exposure in ST-02-0004 study; format: in vivo
Protocol: (§2) The anti-tumor activity of Compound (2) in combination with focused-beam IR and the standard of care agents, paclitaxel and carboplatin, was also evaluated in the ST 02 0004 model. Treatment with paclitaxel, carboplatin, and IR was administered once per week for three weeks alone or in combination with Compound (2). […] Further, the 50 and 25 mg/kg Compound (2), paclitaxel/carboplatin, IR combination groups were statistically different (P<0.05) from the paclitaxel/carboplatin, paclitaxel/carboplatin/50 mg/kg Compound (2), and paclitaxel/carboplatin/IR groups. Compound (2) blood exposures were 9.3 and 27 μg*h/mL for the 25 and 50 mg/kg Compound (2) bid groups, respectively.

[7] = Body weight in ST-02-0004 xenograft studies; conditions: in vivo, po, 25 mg/kg
Protocol: The in vivo activities of Compounds (1) and (2) were compared in combination with focused beam IR in a primary gastric cancer subcutaneous xenograft model. In the ST 02 0004 model, focused IR was administered on three consecutive days alone and in combination with Compound (1) or Compound (2). […] For all experimental groups, treatment was generally well tolerated as evidenced by maximum body weight losses ranging from −8.06% to −10.0% 10 to 48 days after treatment initiation
as §2

CNC(=O)c1ccnc2c([C@H](C)CNc3cc(-c4cnc(C)nc4)ncn3)cccc12 [Compound (1), (S)-N-methyl-8-(1-((2′-methyl-[4,5′-bipyrimidin]-6-yl)amino)propan-2-yl)quinoline-4-carboxamide]
% T/C (Day 29) ([1]; PO 25 mg/kg bid (0, 4 h)): 25.6%
% T/C (Day 20) ([1]; PO 100 mg/kg tid (0, 3, 7 h) qdx1, 2 Gy qdx1 (3.25 h) whole body IR, 100 mg/kg): 26%
% T/C (Day 20) ([1]; PO 100 mg/kg tid (0, 3, 7 h) qdx1, no IR): 101%
% T/C (Day 29) ([1]; PO 200 mg/kg qd): 6.5%
Synergy or Antagonism, No Radiation [2]: Synergy
Synergy or Antagonism, Plus Radiation (2 Gy) [2]: Plus
Synergy or Antagonism, No Radiation ([3]; no agent ticked): Synergy
Synergy or Antagonism, Plus Radiation (2 Gy) ([3]; no agent ticked): Plus
Synergy or Antagonism, No Radiation ([3]; with Cetuximab): Additivity
Synergy or Antagonism, Plus Radiation (2 Gy) ([3]; with Cetuximab): Additivity, Plus
Synergy or Antagonism, No Radiation [4]: Additivity
Synergy or Antagonism, Plus Radiation (2 Gy) [4]: Plus
Synergy or Antagonism, No Radiation ([5]; no agent ticked): Additivity
Synergy or Antagonism, Plus Radiation (2 Gy) ([5]; no agent ticked): No effect
Synergy or Antagonism, No Radiation ([5]; with Cisplatin): Additive
Synergy or Antagonism, No Radiation ([5]; with Cisplatin and 5-FU): Additivity
Synergy or Antagonism, Plus Radiation (2 Gy) ([5]; with Cisplatin and 5-FU): Additivity, Plus
Synergy or Antagonism, No Radiation ([5]; with Etoposide): Synergy
Synergy or Antagonism, No Radiation ([5]; with Paclitaxel): Additivity

[2H]c1nc(C)nc([2H])c1-c1cc(NC[C@@H](C)c2cccc3c(C(=O)NC)ccnc23)ncn1 [Compound (2), (S)-N-methyl-8-(1-((2′-methyl-4′,6′-dideutero-[4,5′-bipyrimidin]-6-yl)amino)propan-2-yl)quinoline-4-carboxamide]
blood exposure ([6]; 25 mg/kg Compound (2) bid group): 9300 ng·h/mL
blood exposure ([6]; 50 mg/kg Compound (2) bid group): 27000 ng·h/mL
Max. body wt loss (%) [7]: −6.73%
